Biological target: T1, ternary complex between progerin, compound 2 and CRBN (Mus musculus, UniProt P48678+Q8C7D2, DEL608-657)
T1 construct: endogenous in cells; host or cells: Lmna G609G/G609G mouse fibroblasts
Assay: Co-immunoprecipitation of ternary complex (anti-CRBN IP, anti-progerin blot)
Type: binding
Conditions: 5 µM, 6 h, Lmna^G609G/G609G fibroblasts
Source text: (A) Input IP .LM123L T-!=> V,!=>
MW Veh Cpd 2 Cpd 2 Veh !!!!!"#$$#B -45665 T4--8 -4;?,;
Progerin !!!!!E#)*+,- ,V4:-Ise::::: :etpoooomX,?4?V:enst9mmqo,848; !?#$B?CDEFCBG+I-+G.BLG+ […]
!!!!!*+,- 84;66L<-,VI9e::::::esnnsmqmXV4-;VL<-,?:estm9XpoX?4T-?L<-,8 FFFFF0BNNB$ :em9Xn […]
IgG heavy chain Iqep:m:p ne:qmppo:m :esmpqtmpn FFFFFSB#T89:I9em:m […]
50- Iqe9mt:: :eoX9ppnnm :eoqpq9s9p X9YF8=F>.-B2?E+FE??+E?@BBCA
FFFFF0BNNB$ rrrFNBF:eqoqs
Cpd 2 Veh FFFFFSB#T89:rrr […]
Vehicle .LM123L T-!=>(%C" V,!=> […]
50- !!!!!C#' -4TT8VLamin C -4T:T; (%$$-4-:?5T '()*+
!!!!!E#)*+,- ,V4:-β-Actin ,?4?V ,848; D(%
37- !!!!!*+,- 84;66L<-,V V4-;VL<-,? ?4T-?L<-,8 ,-)*+ […]
Abundance Ratio (log2): Ve h / Cpd 2
Supporting Figure S2. Ternary complex formation, progerin engagement and global selectivity of compound 2. (A) Progeroid […]/G609G fibroblasts treated with vehicle (0.1% DMSO) or compound 2 (5 µM) were subjected to immunoprecipitation with an anti-CRBN antibody and then immunoblotted with an anti-progerin antibody. Bar graph represents mean±sem of 2 independent experiments. (B) Representative progerin immunoblotting of the soluble fraction of LmnaG609G/G609G cell homogenates treated with […]
Cells were harvested by trypsin, centrifuged and washed with PBS. […] The mixture was then allowed to incubate for 30min at 37 °C in the dark and samples were finally analysed by FACScalibur (Becton Dickinson) flow cytometer […]

T1 sequence (P48678 with tags, fused parts or gaps DEL608-657 limits assumed): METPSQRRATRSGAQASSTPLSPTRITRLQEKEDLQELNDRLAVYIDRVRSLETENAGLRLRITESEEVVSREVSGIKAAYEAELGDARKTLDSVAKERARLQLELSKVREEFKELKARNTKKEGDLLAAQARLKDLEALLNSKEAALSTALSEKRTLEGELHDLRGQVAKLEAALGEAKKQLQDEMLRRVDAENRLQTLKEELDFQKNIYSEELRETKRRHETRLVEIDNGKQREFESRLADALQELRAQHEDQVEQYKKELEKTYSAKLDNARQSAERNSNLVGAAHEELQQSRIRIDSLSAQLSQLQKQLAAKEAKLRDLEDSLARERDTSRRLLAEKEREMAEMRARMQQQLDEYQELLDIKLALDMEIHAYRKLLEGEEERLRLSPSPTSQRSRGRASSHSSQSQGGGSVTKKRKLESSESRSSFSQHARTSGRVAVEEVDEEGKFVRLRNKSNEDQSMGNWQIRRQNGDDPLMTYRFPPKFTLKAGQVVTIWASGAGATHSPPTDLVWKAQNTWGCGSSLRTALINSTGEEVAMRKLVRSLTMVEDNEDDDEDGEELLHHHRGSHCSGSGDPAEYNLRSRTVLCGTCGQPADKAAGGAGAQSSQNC
T1 sequence (Q8C7D2 whole entry, stated change not applied): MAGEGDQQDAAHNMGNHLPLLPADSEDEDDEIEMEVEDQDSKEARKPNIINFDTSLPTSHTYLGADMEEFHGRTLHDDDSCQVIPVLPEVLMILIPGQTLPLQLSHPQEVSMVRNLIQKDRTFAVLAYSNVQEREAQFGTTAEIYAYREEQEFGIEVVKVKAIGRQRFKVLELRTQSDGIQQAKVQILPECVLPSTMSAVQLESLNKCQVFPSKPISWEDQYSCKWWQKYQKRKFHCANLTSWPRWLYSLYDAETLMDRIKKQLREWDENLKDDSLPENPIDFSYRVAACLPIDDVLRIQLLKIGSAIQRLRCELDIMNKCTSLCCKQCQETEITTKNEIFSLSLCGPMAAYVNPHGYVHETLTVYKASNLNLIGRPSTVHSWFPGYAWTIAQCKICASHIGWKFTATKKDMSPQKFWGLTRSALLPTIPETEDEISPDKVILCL
T1 sequence (Q3U1J4 whole entry partner): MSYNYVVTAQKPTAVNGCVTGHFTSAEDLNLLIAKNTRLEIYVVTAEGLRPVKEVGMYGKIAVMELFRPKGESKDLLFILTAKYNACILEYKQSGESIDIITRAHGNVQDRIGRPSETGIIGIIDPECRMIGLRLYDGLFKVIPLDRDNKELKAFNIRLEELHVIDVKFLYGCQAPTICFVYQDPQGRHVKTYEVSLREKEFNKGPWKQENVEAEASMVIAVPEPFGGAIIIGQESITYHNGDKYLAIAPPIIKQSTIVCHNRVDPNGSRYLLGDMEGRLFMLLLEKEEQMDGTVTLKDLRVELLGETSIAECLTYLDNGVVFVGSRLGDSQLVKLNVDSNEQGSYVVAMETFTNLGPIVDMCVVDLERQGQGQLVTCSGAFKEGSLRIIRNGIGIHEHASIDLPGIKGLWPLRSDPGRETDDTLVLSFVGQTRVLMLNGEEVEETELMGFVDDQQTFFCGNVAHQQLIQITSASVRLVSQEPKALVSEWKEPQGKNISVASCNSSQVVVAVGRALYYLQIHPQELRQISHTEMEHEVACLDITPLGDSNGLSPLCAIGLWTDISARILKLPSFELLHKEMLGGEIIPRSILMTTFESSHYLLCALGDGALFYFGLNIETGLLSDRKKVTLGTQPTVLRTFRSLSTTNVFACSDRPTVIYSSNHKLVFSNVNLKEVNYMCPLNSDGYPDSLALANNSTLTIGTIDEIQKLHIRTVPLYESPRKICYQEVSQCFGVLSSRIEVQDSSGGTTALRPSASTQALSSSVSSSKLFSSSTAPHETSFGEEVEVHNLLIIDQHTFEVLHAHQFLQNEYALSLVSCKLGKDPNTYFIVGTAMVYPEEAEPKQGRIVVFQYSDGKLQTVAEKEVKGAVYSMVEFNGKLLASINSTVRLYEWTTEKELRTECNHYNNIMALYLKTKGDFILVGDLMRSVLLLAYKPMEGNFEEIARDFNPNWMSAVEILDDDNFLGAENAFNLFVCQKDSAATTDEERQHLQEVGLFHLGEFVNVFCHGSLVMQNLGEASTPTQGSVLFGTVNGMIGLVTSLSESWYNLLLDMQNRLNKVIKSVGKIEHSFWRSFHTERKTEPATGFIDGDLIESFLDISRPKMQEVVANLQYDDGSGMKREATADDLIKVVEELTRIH

`CC1(C)Oc2cc3oc(=O)ccc3cc2C[C@@H]1OC(=O)CCCCCNc1cccc2c1C(=O)N(C1CCC(=O)NC1=O)C2=O` (stereo partly shown) [compound 2] was tested, and the “formation of ternary complex with progerin and CRBN by immunoprecipitation” value was “confirmed the formation of the ternary complex”.

Source: paper PMC13252604, “First Generation Proteolysis Targeting Chimeras (PROTACs) for the Treatment of Progeria” (Advanced Science, 2026)
